Measured values published in patent publication US9403830B2, “Inhibitors of leukotriene production” (Boehringer Ingelheim International GmbH, priority 2012, dated 2016).
pIC50: −log10 of the molar value.

Experiments:
human LTA4 hydrolase = biological target: T1, human LTA4 hydrolase (Homo sapiens, UniProt P09960); assay: LTA4H Enzyme assay (peptidase, Arg-AMC cleavage); assay type: biochemical; conditions: LTA4H enzyme 1 nM, Arg-AMC substrate 50 μM, room temperature 1 h, fluorescence 380/460 nm
T1 sequence (P09960 1-611): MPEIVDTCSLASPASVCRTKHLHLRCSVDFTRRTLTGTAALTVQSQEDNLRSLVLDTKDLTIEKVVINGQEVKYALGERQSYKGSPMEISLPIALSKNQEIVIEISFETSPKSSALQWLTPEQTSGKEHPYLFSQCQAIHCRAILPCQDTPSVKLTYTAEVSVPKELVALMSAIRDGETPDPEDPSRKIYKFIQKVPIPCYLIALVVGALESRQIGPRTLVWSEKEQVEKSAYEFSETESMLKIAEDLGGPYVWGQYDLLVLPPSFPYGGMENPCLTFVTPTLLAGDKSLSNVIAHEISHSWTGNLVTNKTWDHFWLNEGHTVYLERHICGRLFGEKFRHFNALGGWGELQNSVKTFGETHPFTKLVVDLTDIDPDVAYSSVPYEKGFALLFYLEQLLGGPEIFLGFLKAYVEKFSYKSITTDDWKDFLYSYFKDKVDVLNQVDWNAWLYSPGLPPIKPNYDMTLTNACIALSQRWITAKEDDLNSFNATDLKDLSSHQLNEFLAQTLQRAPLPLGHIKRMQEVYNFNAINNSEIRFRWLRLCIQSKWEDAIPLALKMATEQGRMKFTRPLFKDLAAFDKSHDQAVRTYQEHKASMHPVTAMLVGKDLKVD
Procedure, shortened: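 Human LTA4H (1 nM final) incubated with compound and Arg-AMC (50 μM final) in 50 mM Tris-HCl pH 7.5, 100 mM KCl, 0.5% BSA, 1 h at room temperature. Product read as AMC fluorescence (ex 380/em 460 nm); IC50 reported.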

[1] = system: LTB4 synthesis in human whole blood; assay: human whole blood (HWB) assay, inhibition of LTB4 production; assay type: cell-based; conditions: heparinized human whole blood, calcimycin 20 μM stimulation, plasma LTB4
Procedure, shortened: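 Plasma LTB4, quantified by HTRF immunoassay, is the read-out after calcimycin challenge (20 μM final, 30 min, 37 °C) of heparinized whole blood that had been pretreated with compound for 15 min at 37 °C; values given as IC50.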

pIC50 (human LTA4 hydrolase) | pIC50 [1] | Compound
9.00 | 6.70 | N#CCC(=O)N1CCN(Cc2ccc3cc(Oc4ccc(-c5ccn[nH]5)cn4)ccc3n2)CC1 [Example 31, 3-Oxa-3-(4-{6-[5-(2H-pyrazol-3-yl)-pyridin-2-yloxy]-quinolin-2-ylmethyl}-piperazin-1-yl)-propionitrile]
9.11 | 6.64 | CN(C(=O)CO)C1CCN(Cc2ccc3cc(Oc4ccc(-c5ccn[nH]5)cn4)ccc3n2)CC1 [Example 33, 2-Hydroxy-N-methyl-N-(1-{6-[5-(2H-pyrazol-3-yl)-pyridin-2-yloxy]-quinolin-2-ylmethyl}-piperidin-4-yl)-acetamide]
9.07 | 6.68 | CC(=O)N1CC2CN(Cc3ccc4cc(Oc5ccc(-c6ccn[nH]6)cn5)ccc4n3)CC2C1 (centres unmarked) [Example 32, 1-(5-{6-[5-(2H-Pyrazol-3-yl)-pyridin-2-yloxy]-quinolin-2-ylmethyl}-hexahydro-pyrrolo[3,4-c]pyrrol-2-yl)-ethanone]
9.28 | 6.82 | O=C(CO)N1CCN(Cc2ccc3cc(Oc4ccc(-c5ccn[nH]5)cc4)ccc3n2)CC1 [Example 10, 2-hydroxy-1-(4-{6-[4-(2H-pyrazol-3-yl)-phenoxy]-quinolin-2-ylmethyl}-piperazin-1-yl)-ethanone]
9.72 | 6.96 | CN(Cc1nc2cc(Oc3ccc(-c4ccn[nH]4)cc3)ccc2[nH]1)CC1CCOCC1 [Example 159, Methyl-{5-[4-(2H-pyrazol-3-yl)-phenoxy]-1H-benzoimidazol-2-ylmethyl}-(tetrahydro-pyran-4-ylmethyl)-amine]
9.89 | 6.82 | CC[C@@H](C)NCc1nc2cc(Oc3ccc(-c4ccn[nH]4)cc3)ccc2[nH]1 [Example 180, ((R)-sec-Butyl)-{5-[4-(2H-pyrazol-3-yl)-phenoxy]-1H-benzoimidazol-2-ylmethyl}-amine]
9.15 | 6.48 | c1cc(-c2ccc(Oc3ccc4nc(CN5CCOCC5)ccc4c3)cc2)[nH]n1 [Example 254, 2-Morpholin-4-ylmethyl-6-[4-(2H-pyrazol-3-yl)-phenoxy]-quinoline]
